Laboratory results: patent publication US20070123426A1, “Mixtures” (BASF Aktiengesellschaft, priority 2005, published 2007)

Assays:
Assay in all cases: greenhouse post-emergence herbicidal test
Format in all cases: in vivo
AMBEL (Ambrosia elatior) = settings: AMBEL; a) 3.125 g/ha, MSO or COC 1.25%, scale 0-100
Description: (§1) The culture vessels used were plastic flowerpots filled, as substrate, with sandy loam comprising about 3% of humus. The seeds of the test plants were sown separated according to species.
(§2) For the post-emergence treatment, the test plants were initially cultivated to a height of 3-17 cm according to their habit and only then treated with the active compounds, which had been suspended or emulsified in water. To this end, the test plants were either sown directly and cultivated in the same vessels, or they were initially cultivated separately as seedlings and transplanted into the test vessels a few days prior to the treatment. According to the species, the plants were kept at temperatures of from 15° C. to 25° C. or from 20 to 35° C. The trial period extended over 3 weeks. During this time the plants were tended and their response to the individual treatments was evaluated.
(§3) The application in the greenhouse was carried out at a spray liquor application rate of 200 l/ha.

[1] = test system: ECHCG (Echinochloa crus-galli); settings: MSO or COC 1.25%, scale 0-100
Description: as §1, §2, §3

HELAN (Helianthus annua) = settings: HELAN; a) 6.25 g/ha, MSO or COC 1.25%, scale 0-100
Description: as §1, §2, §3

[2] = test system: PANDI (Panicum dichotomiflorum); settings: PANDI; a) 25 g/ha, MSO or COC 1.25%, scale 0-100
Description: as §1, §2, §3

[3] = test system: PANMI (Panicum milliaceum); settings: PANMI; a) 12.5 g/ha, MSO or COC 1.25%, scale 0-100
Description: as §1, §2, §3

SETVI (Setaria viridis) = settings: SETVI; a) 12.5 g/ha, MSO or COC 1.25%, scale 0-100
Description: as §1, §2, §3

SOLNI (Solanum nigrum) = settings: SOLNI; a) 3.125 g/ha, MSO or COC 1.25%, scale 0-100
Description: as §1, §2, §3

SORBI (Sorghum bicolor) = settings: SORBI; a) 25 g/ha, MSO or COC 1.25%, scale 0-100
Description: as §1, §2, §3

[4] = test system: XANST (Xanthium strumarium); settings: XANST; a) 12.5 g/ha, MSO or COC 1.25%, scale 0-100
Description: as §1, §2, §3

## Cc1c(C(=O)c2cnn(C)c2O)ccc(S(C)(=O)=O)c1C1=NOCC1 [a)]
AMBEL (Ambrosia elatior)
  observed effect: 60
[1]; ECHCG; a) 12.5 g/ha
  observed effect: 0
[1]; ECHCG; a) 25 g/ha
  observed effect: 0
HELAN (Helianthus annua)
  observed effect: 30
[2]
  observed effect: 0
[3]
  observed effect: 75
SETVI (Setaria viridis)
  observed effect: 60
SOLNI (Solanum nigrum)
  observed effect: 30
SORBI (Sorghum bicolor)
  observed effect: 10
[4]
  observed effect: 65
